Species: Rattus norvegicus
Experiment: DrugMatrix - Regimen: Daily Repeat
Format: toxicity, organism-based, Sprague-Dawley
Parameters: regimen Daily Repeat, gender Male, age 6-8 weeks
Conditions: in vivo, po, 30 mg/kg, route oral GAVAGE, dose level Low, vehicle .5 % CMC; for ABSOLUTE BASOPHIL / ABSOLUTE EOSINOPHIL / ABSOLUTE LYMPHOCYTE / ABSOLUTE MONOCYTE / ABSOLUTE SEGMENTED NEUTROPHIL / BASOPHIL / EOSINOPHIL / ERYTHROCYTE COUNT / HEMATOCRIT / HEMOGLOBIN / LEUKOCYTE COUNT / LYMPHOCYTE / MEAN CORPUSCULAR HEMOGLOBIN / MEAN CORPUSCULAR HEMOGLOBIN CONCENTRATION / MEAN CORPUSCULAR VOLUME / MONOCYTE / NEUTROPHIL / NUCLEATED RED BLOOD CELLS / PLATELET COUNT: tissue Blood; for ALANINE AMINOTRANSFERASE / ALBUMIN / ALKALINE PHOSPHATASE / ASPARTATE AMINOTRANSFERASE / BLOOD UREA NITROGEN / CARBON DIOXIDE / CHLORIDE / CHOLESTEROL / CREATINE PHOSPHOKINASE / CREATININE / GLUCOSE / LACTATE DEHYDROGENASE / LIPASE / PHOSPHORUS / POTASSIUM / SODIUM / TOTAL BILIRUBIN / TOTAL PROTEIN / URIC ACID: tissue Plasma

Structure (SMILES): CC(=O)CCCCn1c(=O)c2c(ncn2C)n(C)c1=O [PENTOXIFYLLINE]
- ABSOLUTE BASOPHIL (72 h, time 3 day): 0 CELLS/uL
- ABSOLUTE EOSINOPHIL (72 h, time 3 day): 54.67 CELLS/uL
- ABSOLUTE LYMPHOCYTE (72 h, time 3 day): 16028 CELLS/uL
- ABSOLUTE MONOCYTE (72 h, time 3 day): 106.67 CELLS/uL
- ABSOLUTE SEGMENTED NEUTROPHIL (72 h, time 3 day): 1677.33 CELLS/uL
- BASOPHIL (72 h, time 3 day): 0%
- EOSINOPHIL (72 h, time 3 day): 0.33%
- ERYTHROCYTE COUNT (72 h, time 3 day): 4.93 x10E6/uL
- HEMATOCRIT (72 h, time 3 day): 32.23%
- HEMOGLOBIN (72 h, time 3 day): 12.6 G/DL
- LEUKOCYTE COUNT (72 h, time 3 day): 17.87 x10E3/uL
- LYMPHOCYTE (72 h, time 3 day): 89.67%
- MEAN CORPUSCULAR HEMOGLOBIN (72 h, time 3 day): 25.6 pg
- MEAN CORPUSCULAR HEMOGLOBIN CONCENTRATION (72 h, time 3 day): 39.1 G/DL
- MEAN CORPUSCULAR VOLUME (72 h, time 3 day): 65.47 fL
- MONOCYTE (72 h, time 3 day): 0.67%
- NEUTROPHIL (72 h, time 3 day): 9.33%
- NUCLEATED RED BLOOD CELLS (72 h, time 3 day): 0.33 /100WBC
- PLATELET COUNT (72 h, time 3 day): 1350 x10E3/uL
- ALANINE AMINOTRANSFERASE (72 h, time 3 day): 62.33 u/L
- ALBUMIN (72 h, time 3 day): 4.27 G/DL
- ALKALINE PHOSPHATASE (72 h, time 3 day): 546.33 u/L
- ASPARTATE AMINOTRANSFERASE (72 h, time 3 day): 100.33 u/L
- BLOOD UREA NITROGEN (72 h, time 3 day): 17.33 mg/dL
- CARBON DIOXIDE (72 h, time 3 day): 24.67 mmol/L
- CHLORIDE (72 h, time 3 day): 107.67 MEQ/L
- CHOLESTEROL (72 h, time 3 day): 71 mg/dL
- CREATINE PHOSPHOKINASE (72 h, time 3 day): 318.67 u/L
- CREATININE (72 h, time 3 day): 0.21 mg/dL
- GLUCOSE (72 h, time 3 day): 160.67 mg/dL
- LACTATE DEHYDROGENASE (72 h, time 3 day): 438.67 u/L
- LIPASE (72 h, time 3 day): 10 u/L
- PHOSPHORUS (72 h, time 3 day): 13.7 mg/dL
- POTASSIUM (72 h, time 3 day): 6.67 MEQ/L
- SODIUM (72 h, time 3 day): 149.33 MEQ/L
- TOTAL BILIRUBIN (72 h, time 3 day): 0.2 mg/dL
- TOTAL PROTEIN (72 h, time 3 day): 5.87 G/DL
- URIC ACID (72 h, time 3 day): 1.47 mg/dL
- ABSOLUTE BASOPHIL (120 h, time 5 day): 0 CELLS/uL
- ABSOLUTE EOSINOPHIL (120 h, time 5 day): 0 CELLS/uL
- ABSOLUTE LYMPHOCYTE (120 h, time 5 day): 10793.33 CELLS/uL
- ABSOLUTE MONOCYTE (120 h, time 5 day): 47.67 CELLS/uL
- ABSOLUTE SEGMENTED NEUTROPHIL (120 h, time 5 day): 492.33 CELLS/uL
- BASOPHIL (120 h, time 5 day): 0%
- EOSINOPHIL (120 h, time 5 day): 0%
- ERYTHROCYTE COUNT (120 h, time 5 day): 5.84 x10E6/uL
- HEMATOCRIT (120 h, time 5 day): 36.73%
- HEMOGLOBIN (120 h, time 5 day): 13.57 G/DL
- LEUKOCYTE COUNT (120 h, time 5 day): 11.33 x10E3/uL
- LYMPHOCYTE (120 h, time 5 day): 95.33%
- MEAN CORPUSCULAR HEMOGLOBIN (120 h, time 5 day): 23.23 pg
- MEAN CORPUSCULAR HEMOGLOBIN CONCENTRATION (120 h, time 5 day): 36.97 G/DL
- MEAN CORPUSCULAR VOLUME (120 h, time 5 day): 62.93 fL
- MONOCYTE (120 h, time 5 day): 0.33%
- NEUTROPHIL (120 h, time 5 day): 4.33%
- NUCLEATED RED BLOOD CELLS (120 h, time 5 day): 0.33 /100WBC
- PLATELET COUNT (120 h, time 5 day): 1319.67 x10E3/uL
- ALANINE AMINOTRANSFERASE (120 h, time 5 day): 45 u/L
- ALBUMIN (120 h, time 5 day): 4.5 G/DL
- ALKALINE PHOSPHATASE (120 h, time 5 day): 368 u/L
- ASPARTATE AMINOTRANSFERASE (120 h, time 5 day): 79.67 u/L
- BLOOD UREA NITROGEN (120 h, time 5 day): 18.33 mg/dL
- CARBON DIOXIDE (120 h, time 5 day): 23 mmol/L
- CHLORIDE (120 h, time 5 day): 105.33 MEQ/L
- CHOLESTEROL (120 h, time 5 day): 65 mg/dL
- CREATINE PHOSPHOKINASE (120 h, time 5 day): 458.33 u/L
- CREATININE (120 h, time 5 day): 0.21 mg/dL
- GLUCOSE (120 h, time 5 day): 166 mg/dL
- LACTATE DEHYDROGENASE (120 h, time 5 day): 154.67 u/L
- LIPASE (120 h, time 5 day): 10.33 u/L
- PHOSPHORUS (120 h, time 5 day): 13.7 mg/dL
- POTASSIUM (120 h, time 5 day): 7.08 MEQ/L
- SODIUM (120 h, time 5 day): 148.67 MEQ/L
- TOTAL BILIRUBIN (120 h, time 5 day): 0.2 mg/dL
- TOTAL PROTEIN (120 h, time 5 day): 6.43 G/DL
- URIC ACID (120 h, time 5 day): 2.37 mg/dL

Source: ChEMBL document CHEMBL3885881, “DrugMatrix”
